Assay results as given in patent US6686393B1, “Pharmaceutical compositions having antiviral activity against human cytomegalovirus” (Murdock International Corporation, priority 1990, dated 2004).
Several values for one entry are separate records, joined by “and”; a condition that tells them apart may be missing. Identical values can stand only once. Entries after “also recorded” stand apart in the source; their conditions may differ. Like-named read-outs stand apart in the source and are kept apart here.

Assays:
[1] = test system: HCMV, strain C8805-37 (DHPG-resistant); assay: microbe, parasite or virus in culture; format: cell-based, human cytomegalovirus; conditions: for inhibition at 10 µg/mL: Human betaherpesvirus 5, MRC5, 96 h, read-out: Percent Inhibition Compared to Controls; for inhibition at 0.01 µg/mL / inhibition at 0.032 µg/mL / inhibition at 0.1 µg/mL / inhibition at 0.32 µg/mL / inhibition at 1 µg/mL / inhibition at 3.2 µg/mL: Human betaherpesvirus 5, MRC5, read-out: Percent Inhibition Compared to Controls
[2] = test system: MRC-5 cells
[3] = test system: human cytomegalovirus (HCMV), strain AD-169; assay: Antiviral test (plaque reduction) versus HCMV, strain AD-169, in MRC-5 cells; format: cell-based; conditions: for Number of Plaques: average of two wells
[4] = Example 3, cells exposed 4 days
[5] = Table 9 summary, two values = two experiments
[6] = Table 10 summary, DHPG resistant HCMV test
[7] = Human betaherpesvirus 5, AD169, MRC5, read-out: % Reduction
[8] = 10 μg/ml, Example 2, ethanol stock (protohypericin in DMSO), cells exposed 6 or more days
[9] = Human betaherpesvirus 5, AD169, MRC5, 0.01 μg/ml, Example 2, read-out: Percent Inhibition of Plaque Numbers (Compared to Virus Controls)
[10] = Human betaherpesvirus 5, AD169, MRC5, 0.032 μg/ml, Example 2, read-out: Percent Inhibition of Plaque Numbers (Compared to Virus Controls)
[11] = Human betaherpesvirus 5, AD169, MRC5, 0.1 μg/ml, Example 2, read-out: Percent Inhibition of Plaque Numbers (Compared to Virus Controls)
[12] = Human betaherpesvirus 5, AD169, MRC5, 0.32 μg/ml, Example 2, read-out: Percent Inhibition of Plaque Numbers (Compared to Virus Controls)
[13] = Human betaherpesvirus 5, AD169, MRC5, 1.0 μg/ml, Example 2, read-out: Percent Inhibition of Plaque Numbers (Compared to Virus Controls)
[14] = Human betaherpesvirus 5, AD169, MRC5, 3.2 μg/ml, Example 2, read-out: Percent Inhibition of Plaque Numbers (Compared to Virus Controls)
[15] = Example 2, cells exposed 6 or more days

Compound | inhibition at 10 µg/mL [1] [%] | inhibition at 0.01 µg/mL [1] [%] | inhibition at 0.032 µg/mL [1] [%] | inhibition at 0.1 µg/mL [1] [%] | inhibition at 0.32 µg/mL [1] [%] | inhibition at 1 µg/mL [1] [%] | inhibition at 3.2 µg/mL [1] [%] | CD50 [2, 5] | Activity against HCMV [3] | inhibition at 3.2 µg/mL [3, 7] [%] | CD50 ([2]; human, 4 days) [µg/mL] | Percent Inhibition of Plaque Numbers (Compared to Virus Controls) ([3]; 3.2 μg/ml, Example 2) | Percent Inhibition of Plaque Numbers (Compared to Virus Controls) [3, 8] | inhibition at 0.01 µg/mL [3, 9] [%] | inhibition at 0.032 µg/mL [3, 10] [%] | inhibition at 0.1 µg/mL [3, 11] [%] | inhibition at 0.32 µg/mL [3, 12] [%] | inhibition at 1 µg/mL [3, 13] [%] | CD50 [2, 15] [µg/mL] | also measured
O=C1c2ccccc2C(=O)c2c1ccc(O)c2O [Alizarin, alizarin] | 97 | 0 | 19 | 0 | 0 | 21 | 75 | >10 µg/mL | show activity; also recorded: active | 0 |  |  |  |  |  |  |  |  |  | CD50 [2, 4]: >10 µg/mL; CD50 ([2]; Example 5): > 10 µg/mL and ~13 µg/mL; CD50 [2, 6]: >10 µg/mL; inhibition at 0.01 µg/mL [3, 7]: 0%; inhibition at 0.032 µg/mL [3, 7]: 0%; inhibition at 0.1 µg/mL [3, 7]: 0%; inhibition at 0.32 µg/mL [3, 7]: 0%; inhibition at 1 µg/mL [3, 7]: 0%; inhibition at 10 µg/mL [3, 7]: 96%
Cc1cc(O)c2c(c1)Cc1cc(O)cc(O)c1C2=O [Emodin Anthrone, emodin anthrone] |  | 0 | 0 | 0 | 0 | 24 | 100 |  |  |  | 2.6 | toxic | toxic | 0 | 0 | 0 | 0 | 0 |  | Activity against DHPG resistant HCMV strain [1]: shows activity; also recorded: active; Percent Inhibition Compared to Controls [1]: toxic; Activity in initial screening against HCMV in vitro ([3]; initial screening, in words): not active
Cc1cc(O)c2c(c1)C(=O)c1cc(O)cc(O)c1C2=O [Emodin, emodin] |  | 0 | 0 | 0 | 0 | 46 | 100 |  |  |  | 3.4 |  | toxic | 0 | 0 | 0 | 0 | 39 |  | Activity against DHPG resistant HCMV strain [1]: retain essentially the same activity; Percent Inhibition Compared to Controls [1]: toxic; Number of Plaques ([3]; 0.0032 μg/ml, Example 1, DMSO stock): 79; Number of Plaques ([3]; 0.1 μg/ml, Example 1, DMSO stock): 72; Number of Plaques ([3]; 0.32 μg/ml, Example 1, DMSO stock): 78; Number of Plaques ([3]; 1.0 μg/ml, Example 1, DMSO stock): 22; Number of Plaques ([3]; 3.2 μg/ml, Example 1, DMSO stock): 0; Number of Plaques ([3]; 10 μg/ml, Example 1, DMSO stock): 0; inhibition at 0.0032 µg/mL ([3]; Human betaherpesvirus 5, AD169, MRC5, 0.0032 μg/ml, Example 1, DMSO stock): 0%; inhibition at 0.1 µg/mL ([3]; Human betaherpesvirus 5, AD169, MRC5, 0.1 μg/ml, Example 1, DMSO stock, read-out: % Inhibition): 9%; inhibition at 0.32 µg/mL ([3]; Human betaherpesvirus 5, AD169, MRC5, 0.32 μg/ml, Example 1, DMSO stock, read-out: % Inhibition): 1%; inhibition at 1 µg/mL ([3]; Human betaherpesvirus 5, AD169, MRC5, 1.0 μg/ml, Example 1, DMSO stock, read-out: % Inhibition): 72%; inhibition at 3.2 µg/mL ([3]; Human betaherpesvirus 5, AD169, MRC5, 3.2 μg/ml, Example 1, DMSO stock, read-out: % Inhibition): 100%; inhibition at 3.2 µg/mL [3, 14]: 100%; inhibition at 10 µg/mL ([3]; Human betaherpesvirus 5, AD169, MRC5, 10 μg/ml, Example 1, DMSO stock, read-out: % Inhibition): 100%; Activity against HCMV ([3]; statement in words on the plaque reduction results): show activity; Activity against HCMV ([3]; statement in words on the plaque reduction results, listed as emodin): anti-HCMV activity
O=C(O)c1cc(O)c2c(c1)[C@H]([C@H]1c3cc(C(=O)O)cc(O)c3C(=O)c3c(O[C@@H]4O[C@H](CO)[C@@H](O)[C@H](O)[C@H]4O)cccc31)c1cccc(O[C@@H]3O[C@H](CO)[C@@H](O)[C@H](O)[C@H]3O)c1C2=O [(+)Sennoside A, sennoside A] |  |  |  |  |  |  |  | >10 µg/mL |  |  |  | 0% | 0% |  |  |  |  |  | >10 | Percent Inhibition of Plaque Numbers (Compared to Virus Controls) ([3]; 0.01 μg/ml, Example 2): 0%; Percent Inhibition of Plaque Numbers (Compared to Virus Controls) ([3]; 0.032 μg/ml, Example 2): 0%; Percent Inhibition of Plaque Numbers (Compared to Virus Controls) ([3]; 0.1 μg/ml, Example 2): 0%; Percent Inhibition of Plaque Numbers (Compared to Virus Controls) ([3]; 0.32 μg/ml, Example 2): 0%; Percent Inhibition of Plaque Numbers (Compared to Virus Controls) ([3]; 1.0 μg/ml, Example 2): 0%
protohypericin |  |  |  |  |  |  |  | 5.6 µg/mL | show activity; also recorded: good biological activity |  |  |  |  |  |  |  |  |  | 5.6 | Activity in initial screening against HCMV in vitro [3]: active; Percent Inhibition of Plaque Numbers (Compared to Virus Controls) [3]: 0%
O=C(O)c1cc(O)c2c(c1)C(=O)c1cccc(O)c1C2=O [Rhein, rhein] | 100 | 0 | 0 | 38 | 0 | 49 | 100 | 3.4 µg/mL and 2.9 µg/mL |  | 100 |  |  |  |  |  |  |  |  |  | CD50 [2, 4]: >10 µg/mL; CD50 ([2]; Example 5): 3.4 µg/mL; CD50 ([2]; Example 7): 2.9 µg/mL; CD50 [2, 6]: >10 µg/mL
O=C(O)c1cc(O)c2c(c1)[C@@H]([C@H]1c3cc(C(=O)O)cc(O)c3C(=O)c3c(O[C@@H]4O[C@H](CO)[C@@H](O)[C@H](O)[C@H]4O)cccc31)c1cccc(O[C@@H]3O[C@H](CO)[C@@H](O)[C@H](O)[C@H]3O)c1C2=O [Meso Sennoside B, sennoside B] |  |  |  |  |  |  |  | >10 µg/mL |  |  |  | 0% | 0% |  |  |  |  |  | >10 | Percent Inhibition of Plaque Numbers (Compared to Virus Controls) ([3]; 0.01 μg/ml, Example 2): 0%; Percent Inhibition of Plaque Numbers (Compared to Virus Controls) ([3]; 0.032 μg/ml, Example 2): 0%; Percent Inhibition of Plaque Numbers (Compared to Virus Controls) ([3]; 0.1 μg/ml, Example 2): 0%; Percent Inhibition of Plaque Numbers (Compared to Virus Controls) ([3]; 0.32 μg/ml, Example 2): 0%; Percent Inhibition of Plaque Numbers (Compared to Virus Controls) ([3]; 1.0 μg/ml, Example 2): 0%
O=C1c2cccc(O)c2C(=O)c2c(O)cc(CO)cc21 [Aloe-Emodin, aloe-emodin] |  |  |  |  |  |  |  |  |  |  |  |  |  | 0 | 0 | 0 | 0 | 0 |  | CD50 ([2]; human): >10 µg/mL; inhibition at 3.2 µg/mL [3, 14]: 0%; inhibition at 10 µg/mL ([3]; Human betaherpesvirus 5, AD169, MRC5, 10 μg/ml, Example 2, ethanol stock (protohypericin in DMSO), cells exposed 6 or more days, read-out: Percent Inhibition of Plaque Numbers (Compared to Virus Controls)): 0%
O=C1c2ccc(O)c(O)c2C(=O)c2c(O)ccc(O)c21 [Quinalizarin, quinalizarin] | 98 | 21 | 44 | 20 | 0 | 42 | 88 |  | definitely active; also recorded: show activity | 100 | >10 |  |  |  |  |  |  |  |  | 
O=C1c2ccccc2C(=O)c2c(O)c(O)cc(O)c21 [Purpurin, purpurin] |  |  |  |  |  |  |  |  |  | 0 |  |  |  |  |  |  |  |  |  | CD50 ([2]; human): 5.6 µg/mL; inhibition at 0.01 µg/mL [3, 7]: 0%; inhibition at 0.032 µg/mL [3, 7]: 0%; inhibition at 0.1 µg/mL [3, 7]: 0%; inhibition at 0.32 µg/mL [3, 7]: 0%; inhibition at 1 µg/mL [3, 7]: 0%
